Consider one compound from US20220202703A1, “IN SITU GEL-FORMING DELIVERY SYSTEMS, METHODS AND COMPOSITIONS” (Poly-Med, Inc., priority 2019, published 2022).

This series is described as follows: Erdafitinib batch release study in artificial urine at 37° C., HPLC. Particulars: in solution / through in vitro study, HPLC PDA detection. The series is classed as physicochemical. From the text: Scope: Load Erdafitinib into a limited number of proprietary delivery systems and perform a batch release study in artificial urine to determine release and stability of the active agent. Erdafitinib sourced from publicly available supplier having 99% purity. Obtained as fine yellow powder. Viscoprene® used as a hydrosetting gel carrier presenting as a high viscosity liquid. An encapsulant was used to provide a diffusion barrier around the Viscoprene/Erdafitinib matrix for some samples.
Formulation 1: Viscoprene and diluent release matrix. Formulation 2: Viscoprene release matrix. Formulation 3: Viscoprene in Encapsulant A. Formulation 4: Viscoprene in Encapsulant B. Step 1: Prepared release matrices (Erdafitinib in Viscoprene) with or without diluent (active matrix). Each study specimen included approximately 12 mg of drug. Step 2: Active matrix was encapsulated for Formulations 3 and 4. Step 3: Formulations were placed in artificial urine (USP method) at 37° C. Step 4: At time points, artificial urine was changed to fresh artificial urine. Step 5: Samples were analyzed for Erdafitinib content by HPLC.
An Isocratic HPLC method (non-stability indicating) able to identify Erdafitinib using a C18 column and water/acetonitrile mobile phase. Calibration curve generated with a R2 value of 0.9999. […] Sample preparation: Erdafitinib mixed readily into Viscoprene matrices. […]

Each structure is given as a SMILES string.

Take `COc1cc(OC)cc(N(CCNC(C)C)c2ccc3ncc(-c4cnn(C)c4)nc3c2)c1` [Erdafitinib, 1,2-Ethanediamine, N1-(3,5-dimethoxyphenyl)-N2-(1-methylethyl)-N1-(3-(1-methyl-1H-pyrazol-4-yl)-6-quinoxalinyl)-]: the “Erdafitinib stability (in words)” value is “provisionally stable over a suitable timeframe”. In addition, for the setting “listed as Erdatifinib”, the “Erdafitinib stability (in words)” value was “likely stable through in vitro study for extended duration”.
